Data as given in US11193114B2, “Immunogenic peptides for use in the prevention and/or treatment of infectious diseases, autoimmune diseases, immune responses to allofactors, allergic diseases, tumors, graft rejection and immune responses against viral vectors used for gene therapy or gene vaccination” (IMNATE SARL, priority 2010, dated 2021).

What was measured:
EG7 tumor cells = assay: Apoptosis of EG7 tumor cells by CD4+ NKT cell lines from peptide-immunized mice (Annexin V / 7-AAD); assay type: cell-based, mouse (C57BL/6, H-2b); conditions: EG7 cells cultured 18 h at ratio 1/1 with NKT cell lines from mice immunized with the peptide
Description: C57BL/6 mice (n=6) were immunized by four subcutaneous injections of 50 μg of peptide of SEQ ID NO: 3 in alum carried out at one-week interval.
Such peptide contains a CD1d-restricted NKT cell epitope derived from ovalbumin and a thioreductase motif in flanking residues. A control group (n=6) of mice received physiological serum in alum instead of peptide. Ten days after the last immunization the mice were sacrificed and spleen CD4+ T cells were prepared by magnetic cell sorting. Such cells were stimulated twice with the immunizing peptide in vitro before assessing their activation state as measured by the production of IL-4 and IFN-gamma.
CD4+ NKT cell lines were then assayed in vitro for their capacity to kill EG7 tumor cells. EG7 tumor cells (H-2b) are derived from a thymoma transduced with an ova construct. A CD1d restricted ova epitope is presented by such cells, which is known to be insufficient to trigger NKT activation and tumor cell killing.
EG7 cells were labeled at membrane level with 1 μM DiOC18 (3,3′ dioctadecycloxacarbocyanine perchlorate from Invitrogen). […] After 18 h, cells were harvested and stained for Annexin V and 7-AAD following manufacturer's instructions (Apoptosis Detection kit; BD Biosciences) and analysed on a FACSCantoll flow cytometer (BD Biosciences).

[1] = test system: Factor VIII specific CD4+ T cells; assay: Activation (IL-4, IFN-gamma production) of Factor VIII specific CD4+ T cells from mice immunized with peptide, then injected with human factor VIII; assay type: in vivo, BALB/c Factor VIII KO mice; conditions: mice immunized 4 times with 50 μg peptide vs control group without peptide; spleen CD4+ T cells restimulated in vitro
Description: BALB/c Factor VIII KO mice (group A) were immunized 4 times at 1 week interval with 50 μg of peptide 2196, which contains a CD1d-restricted NKT cell epitope and a C-XX-C (SEQ ID NO: 14) thioreductase motif within flanking residues (SEQ ID NO: 1).
Human factor VIII was then injected by the subcutaneous route using 10 IU per injection on 5 occasions separated by one week. Ten days after the last immunization the mice were sacrificed and spleen CD4+ T cells were prepared by magnetic cell sorting. Such cells were stimulated twice with the immunizing peptide and FVIII in vitro before assessing their activation state as measured by the production of IL-4 and IFN-gamma. […] The results (FIG. 1) show a 10-fold reduction of IL-4 production by Factor VIII specific CD4+ T cells obtained from mice immunized with the peptide as compared to the control group, and a 7-fold reduction in the production of IFN-gamma. Results are shown as means+SEM.

[2] = test system: Der p I induced asthma in BALB/c mice; assay: Prevention of Der p I induced allergic asthma by peptide immunization; assay type: in vivo; conditions: 4 injections of 50 μg peptide; Der p I nasal instillation 10 days after last immunization
Text: Allergens from the house dust mite, D. pteronyssinus, are frequently involved in allergic asthma. Der p I is the main allergen of D. pteronyssinus. The sequence of Der p I contains a CD1d binding motif corresponding to amino acid sequence 38 to 44. A peptide of sequence WAFSGVAATES (SEQ ID NO: 12) is produced by synthesis as well as its counterpart containing a thioreductase motif Thus, peptide of CGPCGGFSGVAATES (SEQ ID NO: 8) contains a thioreductase motif (underlined) and a linker of 2 glycines between the motif and the CD1d-binding motif.
Allergic asthma can be induced in BALB/c mice by nasal instillations of 100 μg Der p I administered on 3 consecutive days. Asthma is characterized by bronchial hyperreactivity and attraction of eosinophil infiltrates into the lung.
BALB/c mice are immunized by 4 injections of 50 μg of peptides of either SEQ ID8 or peptide in natural sequence as a control. Der p I is administered by nasal instillation 10 days after the last immunization.

Ad5 viral particles = assay: Anti-Ad5 IgG antibody response after peptide immunization and Ad5 injection (direct binding ELISA); assay type: in vivo, C57BL/6 mice; conditions: four sc injections of 50 μg peptide in alum, then 2 IV Ad5 injections; serum 10 days after last Ad5 injection
Description: C57BL/6 mice (n=6) were immunized by four subcutaneous injections of 50 μg of peptide of SEQ ID NO: 2 in alum carried out at one-week interval.
Such peptide contains a CD1d-restricted NKT cell epitope of hex on protein of adenovirus (Ad5) and a thioreductase motif in flanking residues. A control group (n=6) of mice received physiological serum in alum instead of peptide. All mice then received 2 injections of 109 Ad5 viral particles by the IV route, separated by I week. Ten days after the last Ad5 injection, mice were bled and the concentration of total IgG antibodies to Ad5 particles was measured in a direct binding ELISA Briefly, Ad5 viral particles were insolubilized on polystyrene plates, followed by washing and incubation with a dilution of mouse serum. After a second washing, the binding of mouse anti-Ad5 antibodies was detected by addition of a goat antiserum to mouse IgG. […] Results are given in arbitrary units as means+SEM.

[3] = test system: EAE (experimental autoimmune encephalomyelitis) in C57BL/6 mice; assay: Prevention of EAE by pre-immunization with MOG peptide; assay type: in vivo; conditions: four sc immunizations (50 μg) before disease induction with MOG 35-55
Description: MOG contains a sequence which binds to CD1d and activates NKT cells. Thus, peptide of sequence PHFLRVPCWKI (SEQ ID NO: 10) is produced by synthesis and a thioreductase-containing peptide of sequence CHGCGGFLRVPCWKI (peptide of SEQ ID NO: 6, in which the thioreductase motif is underlined and a linker of 2 glycines between the motif and the CD1d-binding motif).
Groups of C57BL/6 mice are immunized four times subcutaneously (50 μg) with peptide of SEQ ID6 or, as a control, with peptide in natural sequence. Ten days after the last immunization, all mice, including a group of naive, non-immunized animals, are induced into disease by subcutaneous injection of 100 μg MOG 35-55 peptide/400 μg Mycobacterium butyricum in CFA and ip injection of 300 ng Bordetella pertussis in NaCl. At day +2, a second injection of B. pertussis is given.
Signs of EAE are followed over time.

NOD mice = assay: Prevention of spontaneous insulin-dependent diabetes in NOD mice with GAD65 derived peptides; assay type: in vivo; conditions: female NOD mice, 4 sc injections from the age of 4 weeks
Text: GAD65 contains amino acid sequences with the capacity to bind to CD1d. Thus, the sequence PQHTNVCFWFV (SEQ ID NO: 11), corresponding to amino acids 501 to 507 of GAD65, is produced by synthesis, as well as its counterpart encompassing a thioreductase motif within flanking residues: peptide of CHGCGGHTNVCFWFV (SEQ ID NO: 7) (with the thioreductase motif underlined and a linker of 2 glycines between the motif and the CD1d binding motif).
Female NOD mice are immunized from the age of 4 weeks by 4 subcutaneous injections of peptides of either SEQ ID7 or natural sequence, and glycaemia is followed in each of these groups, by comparison to a non-immunized group.

[4] = test system: BALB/c-derived ALK+ tumor cell line (VAC); assay: Killing of VAC ALK+ tumor cells by NKT cells stimulated with ALK peptide (Annexin-V binding by FACS); assay type: cell-based, BALB/c mice; conditions: VAC cells co-cultured with BALB/c NKT cells stimulated with the peptide; mean of triplicates
Description: Co-culture with a BALB/c-derived ALK+tumor cell line (VAC) was carried out as described above. Apoptosis of tumor cells was measured by evaluating Annexin-V binding by FACS.

R113 tumor cells = assay: Killing of R113 tumor cells by NKT cells stimulated with ALK peptide (Annexin V binding); assay type: cell-based, C57BL/6 mice; conditions: 20 h co-culture with NKT cells stimulated with the peptide
Description: CD4 T cells (C57BL/6, H-2b background) obtained from the spleen of naive mice were stimulated four times with autologous dendritic cells loaded with a CD1d-restricted NKT cell epitope of ALK, to which a thioreductase motif of the C-XX-C (SEQ ID NO: 14) format was added within flanking residues. (Peptide of CHGCGGWLQIVTWWGPGS (SEQ ID NO: 5) (with thioreductase motif underlined and 2 glycines used as linker between the motif and the CD1d-restricted epitope)).
As NKT cells have per se a cytolytic activity, we included cells which were stimulated in parallel experiments by exposure to the same CD1d-restricted NKT epitope in natural sequence, without thioredox motif (WLQIVTWWGPGS) (SEQ ID NO: 9).
Ten days after the last stimulation, CD4 T cells were washed and added to cell culture microplates containing 104 Rl13 tum or cells at a 2 to 1 ratio (CD4 to tum or cells). Rl13 is a tumor B cell line obtained from C57BL/6 mice, which constitutively expresses ALK.
After 20 h of co-culture, Rl13 tumor cells were evaluated for Annexin V binding used as marker of cell apoptosis.

CGH CGG FDKLPGF (CGHCGGFDKLPGF) [SEQ ID3]
apoptosis of EG7 tumor cells (EG7 tumor cells): are induced into apoptosis

CGH CGG FTN MFA TWS PSK (CGHCGGFTNMFATWSPSK) [peptide 2196]
reduction in the production of IFN-gamma by Factor VIII specific CD4+ T cells [1]: 7 fold
reduction of IL-4 production by Factor VIII specific CD4+ T cells [1]: 10 fold

CGPCGGFSGVAATES [SEQ ID8]
airway reactivity to inhalation of methacholine [2]: do not develop airway reactivity to inhalation of methacholine
lung infiltration with eosinophils [2]: do not show lung infiltration with eosinophils

CHG CGG FIGLMYY (CHGCGGFIGLMYY) [SEQ ID NO: 2]
total IgG antibodies to Ad5 particles (Ad5 viral particles): did not produce significant amounts of antibodies

CHGCGGFLRVPCWKI [SEQ ID6, thioreductase-containing MOG peptide]
signs of EAE [3]: do not develop EAE

CHGCGGHTNVCFWFV [SEQ ID7]
glycaemia (NOD mice): prevented from hyperglycaemia

CHGCGGWLQIVTWWGPGS [peptide of sequence 1]
tumor cell death (Annexin-V binding) [4]: 25%
increase in tumor cell death as compared to tumor cells cultured alone (R113 tumor cells): 4.5 fold
tumor cell death (Annexin V binding) (R113 tumor cells; 2 to 1 ratio, mean of triplicates): 18%

PQHTNVCFWFV [SEQ ID NO: 11, reference compound]
glycaemia (NOD mice): develop hyperglycaemia starting after the 14th week
